According to patent US10039846B2, “Compositions targeting bradykinin receptor B1 for medical imaging of cancer and other disorders” (BRITISH COLUMBIA CANCER AGENCY BRANCH, priority 2012, dated 2018):
Values joined by “and” are separate entries in the source; they are usually repeats but may differ in a detail not shown here. Equal values may be shown once. Read-outs that look alike come from different tables or passages of the source. Each block holds one compound with its values, some of them ahead of it. Where a SMILES comes first, the peptide text is derived from it. Where no end group is shown, it is not given here. [ ]: non-standard residue; d: D form. The star is where a group is joined. DOTA = O=C(O)CN1CCN(CC(=O)O)CCN(CC(=O)*)CCN(CC(=O)O)CC1; Hyp = O=C(O)[C@@H]1C[C@@H](O)CN1; Cha = N[C@@H](CC1CCCCC1)C(=O)O; PEG2 = NCCOCCOCCC(=O)O; Ahx = NCCCCCC(=O)O; Sar = CNCC(=O)O

Assays:
[1] = test system: HEK-293 and HEK-293/BKRB1 tumours; settings: mouse
Protocol: (§2) For in vivo imaging, HEK-293 and HEK-293 cells stably transfected with the human bradykinin receptor B1 (HEK-293/BKRB1) were inoculated in the flank of immunodeficient mice (NODSCID IL2rKO). […] A computer tomography image of the mouse was obtained for organ localization and attenuation correction, followed by PET imaging, using a Siemens Inveon multimodality preclinical scanner. Images were acquired over 10-15 minutes for each animal.

B1R [2] = target: T1, B1R (Homo sapiens, UniProt P46663); test: Competitive binding assay with 3H radioligand on CHO-K1 cell membranes over-expressing human B1R; set-up: purchased Perkin Elmer Inc., Waltham, Mass; ES-091-M400UA; host or cells: CHO-K1 cells over-expressing human B1R (membrane preparation)
T1 sequence (P46663 1-353): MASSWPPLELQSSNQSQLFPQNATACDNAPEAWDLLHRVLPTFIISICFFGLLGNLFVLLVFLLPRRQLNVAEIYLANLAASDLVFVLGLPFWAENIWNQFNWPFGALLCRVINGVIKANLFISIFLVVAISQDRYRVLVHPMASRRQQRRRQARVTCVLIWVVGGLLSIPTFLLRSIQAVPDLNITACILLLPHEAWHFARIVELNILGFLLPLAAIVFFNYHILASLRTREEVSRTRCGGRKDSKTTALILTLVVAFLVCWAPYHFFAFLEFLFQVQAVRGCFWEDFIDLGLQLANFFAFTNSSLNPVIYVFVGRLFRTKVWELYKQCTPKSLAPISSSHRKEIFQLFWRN
Protocol: The ability of the peptide and small molecule B1R targeting compounds to bind to B1R was assessed in competitive binding assay as described below.
Preparation of Cell Membranes: Ready to use cell membranes (12.5 μg/μL) from CHO-K1 cells over-expressing human B1R were obtained from Perkin Elmer Inc., Waltham, Mass. (cat. no. ES-091-M400UA). Binding using cell membranes from HEK293T::GFP::hB1R (from Example 3) was also tested. In the latter case, the membranes were prepared as follows: 90% confluent cells grown in large flask, T225, were detached and pelleted in a 50 mL conical tube using centrifuge at 1,200 rpm for 5 minutes. Afterward, cells were re-suspended in 20-30 mL of cold 50 mM Tris-HCl pH 7.4. Ice cold cells were disrupted for 15 seconds at 15,000 rpm with a Polytron PT3100 (Kinematica AG, Lucerne, Switzerland). The solution was aliquoted and centrifuged at 4° C. at 17,000×g for 30 minutes. The supernatant was discarded, and then the pellet was dissolved in 1-2 mL of cold salt solution containing 50 mM Tris-HCl pH 7.4 and 100 mM NaCl and incubated for 1 hour on ice. The cell membranes were pelleted by centrifugation at 4° C. at 17,000×g for 30 minutes and resuspended in 200-600 μL of 50 mM Tris-HCl pH 7.4. The cell membrane extract was stored at −80° C. Protein concentration was determined by Bradford assay (cat. no. R1271, Fermentas, Thermo Fisher Scientific, Burlington, ON). 50 ug of cell membranes per well was used for the competitive binding assay. […] Radio-labelled control was H-3 labelled [Leu^9,des-Arg^10] kallidin obtained either from American Radiolabelled Chemicals Inc, St. Louis, Mo.
Competitive Binding Assays: Assays were performed using 96-well MultiScreenHTS with glass fiber filter and PVDF support obtained from Millipore Corp, Billerica, Mass. (cat. no. MSFB N6B, lot no. R8AN42424). Wells of the MultiScreen plate were pre-soaked with 0.5% of cold Poly(ethyleneimine) (PEI) (cat. no. P3143, Sigma-Aldrich, St. Louis, Mo.) for 30 minutes. Afterward, wells were washed once with 50 mM of Tris-HCl pH 7.4. Total volume per wells was 200 μL. A fixed concentration of the hot radioligand (1, 3, 5 or 12.5 nM depending on the radioligand; see Table 5) was incubated with progressively higher concentrations (10^−11 to 10^−4 M) of the non-radioactive competitor of interest in the presence of cell membranes (50 μg/well) and the assay buffer (50 mM Tris-HCl pH 7.4, 5 mM MgCl2). The MultiScreen plate was then incubated at 27° C. for 15 minutes with agitation at 300 rpm. The assay was stopped by suctioning the reaction solution through the bottom PVDF membrane filter and discarded. The membranes were washed 7× with 150 μL/well of cold 50 mM Tris-HCl pH 7.4. Radioactivity was counted using 1450 MicroBeta TriLux—Microplate Scintillation and Luminescence Counter (Perkin Elmer Inc., Shelton, Conn.).

[3] = test system: HEK-293 and HEK-293/BKRB1 tumours; test: PET/CT imaging of 68Ga-labelled peptides in tumour-bearing mice; settings: PET/CT 60 minutes after intravenous injection
Protocol: as §2

in vivo = settings: NODSCID/IL2RKO, mouse, total radioactivity
Protocol: (§1) ^68Ga labeling of Peptide 4 was performed in NaOAc buffer (pH 4.1) at 110° C. for 10 min, and [^68Ga]P03083 was purified by HPLC. PET imaging and biodistribution studies were performed in NODSCID/IL2RKO mice bearing both B1R-negative HEK293T:GFP tumour and B1R-positive HEK293T:hB1R tumour.

[4] = test system: B1R-negative HEK293T:GFP tumour and B1R-positive HEK293T:hB1R tumour; test: in vivo; settings: mouse
Protocol: as §1

B1R [5] = target: T1, B1R; settings: Cote et al, Peptides 2009; cited from earlier work
B2R = target: T2, B2R (Homo sapiens, UniProt P30411); settings: Cote et al, Peptides 2009; cited from earlier work
T2 sequence (P30411 1-391): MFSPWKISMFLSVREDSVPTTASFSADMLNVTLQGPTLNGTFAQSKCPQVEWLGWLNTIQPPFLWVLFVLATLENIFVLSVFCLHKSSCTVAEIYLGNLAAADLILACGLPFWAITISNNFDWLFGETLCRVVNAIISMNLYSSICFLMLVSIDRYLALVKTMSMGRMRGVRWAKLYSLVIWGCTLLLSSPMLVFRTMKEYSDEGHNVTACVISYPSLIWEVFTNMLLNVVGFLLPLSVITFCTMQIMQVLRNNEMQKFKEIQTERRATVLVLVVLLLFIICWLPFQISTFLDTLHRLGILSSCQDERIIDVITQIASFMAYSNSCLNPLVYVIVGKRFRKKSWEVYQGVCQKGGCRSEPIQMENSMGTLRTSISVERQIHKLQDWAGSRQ

Compound: CC(C)C[C@H](NC(=O)[C@@H]1CCCN1C(=O)[C@H](CO)NC(=O)[C@H](CC1CCCCC1)NC(=O)CNC(=O)[C@@H]1C[C@@H](O)CN1C(=O)[C@@H]1CCCN1C(=O)[C@H](CCCNC(=N)N)NC(=O)[C@H](CCCCN)NC(=O)CNC(=O)CNC(=O)CN1CCN(CC(=O)O)CCN(CC(=O)O)CCN(CC(=O)O)CC1)C(=O)O [Peptide 8, Ga-DOTA-Gly-Gly-Lys-Arg-Pro-Hyp-Gly-Cha-Ser-Pro-Leu] ({DOTA}-GGKRP[Hyp]G[Cha]SPL-OH)
- clearance route [3]: predominantly via the kidneys and bladder
- uptake / visualization of B1R+ tumour [3]: good visualization of B1R+ expressing cells
- uptake in negative control (B1R-) tumour [3]: essentially negligible non-specific uptake

Compound: N=C(N)NCCC[C@H](NC(=O)[C@H](CCCCN)NC(=O)CCCCCNC(=O)CN1CCN(CC(=O)O)CCN(CC(=O)O)CCN(CC(=O)O)CC1)C(=O)N1CCC[C@H]1C(=O)N1C[C@H](O)C[C@H]1C(=O)NCC(=O)N[C@@H](CC1CCCCC1)C(=O)N[C@@H](CO)C(=O)N1CCC[C@H]1C(=O)N[C@H](Cc1ccccc1)C(=O)O [Peptide 12, Ga-DOTA-Ahx-Lys-Arg-Pro-Hyp-Gly-Cha-Ser-Pro-(D-Phe)]
- background activity [3]: minimal background activity
- clearance route [3]: good clearance through the kidneys and bladder
- uptake / visualization of B1R+ tumour [3]: Slightly higher tumour uptake
- uptake in negative control (B1R-) tumour [3]: no non-specific tumour uptake

Compound: CC(C)C[C@H](NC(=O)[C@@H]1CCCN1C(=O)[C@H](CO)NC(=O)[C@H](Cc1ccccc1)NC(=O)CNC(=O)[C@@H]1CCCN1C(=O)[C@@H]1CCCN1C(=O)[C@H](CCCNC(=N)N)NC(=O)[C@H](CCCCN)NC(=O)CCCCCNC(=O)CN1CCN(CC(=O)O)CCN(CC(=O)O)CCN(CC(=O)O)CC1)C(=O)O [[^68Ga]-Peptide 4, metal not drawn]
- tissue uptake at 1 h (in vivo; kidney uptake): 74.9 ± 29.2 %ID/g
- tissue uptake at 1 h (in vivo; uptakes in both B1R-negative and B1R-positive tumors): 1.1 ± 0.4 %ID/g
- excretion of radioactivity [4]: mainly excreted through the renal pathway
- specific uptake to B1R in tumours [4]: No specific uptake

Compound: Sar-Lys-Arg-Pro-Hyp-Gly-Cha-Ser-Pro-(D-Phe) ([Sar]KRP[Hyp]G[Cha]SP[dF])
- Ki (B1R [5]): 0.06 nM
- Ki (B2R): > 10000 nM

Continued, values first:

- background activity ([1]; in vivo, iv): very low background activity
- clearance route ([1]; in vivo, iv): renal and bladder clearance
- Ki (B1R [2]; Hot 4.6 nM BK-ANT-ARC, CHO-K1 membranes, individual assays, read-out: Ki): 17.1 nM and 16 nM
- Ki (B1R [2]; text of Example 5, referring to Example 4, read-out: binding affinity for B1R): 32.8 nM
Compound: CC(C)C[C@H](NC(=O)[C@@H]1CCCN1C(=O)[C@H](CO)NC(=O)[C@H](CC1CCCCC1)NC(=O)CNC(=O)[C@@H]1C[C@@H](O)CN1C(=O)[C@@H]1CCCN1C(=O)[C@H](CCCNC(=N)N)NC(=O)[C@H](CCCCN)NC(=O)CCOCCOCCNC(=O)CN1CCN(CC(=O)O)CCN(CC(=O)O)CCN(CC(=O)O)CC1)C(=O)O [Peptide 3, Ga-DOTA-PEG2-Lys-Arg-Pro-Hyp-Gly-Cha-Ser-Pro-Leu] ({DOTA-PEG2}-KRP[Hyp]G[Cha]SPL-OH)

- in vivo stability [1]: much greater in vivo stability
- background activity ([1]; in vivo, iv): lower background uptake
Compound: CC(C)C[C@H](NC(=O)[C@@H]1CCCN1C(=O)[C@H](CO)NC(=O)[C@H](CC1CCCCC1)NC(=O)CNC(=O)[C@@H]1C[C@@H](O)CN1C(=O)[C@@H]1CCCN1C(=O)[C@H](CCCNC(=N)N)NC(=O)[C@H](CCCCN)NC(=O)CCCCCNC(=O)CN1CCN(CC(=O)O)CCN(CC(=O)O)CCN(CC(=O)O)CC1)C(=O)O [Peptide 10, Ga-DOTA-Ahx-Lys-Arg-Pro-Hyp-Gly-Cha-Ser-Pro-Leu] ({DOTA-Ahx}-KRP[Hyp]G[Cha]SPL-OH)
